Source: US20230277582A1, “TREATMENT OF PRIMARY AND/OR SECONDARY LUNG TUMORS USING GASEOUS NITRIC OXIDE INHALATION” (Beyond Air, Inc., priority 2020, published 2023)
Read-outs that look alike come from different tables or passages of the source.

Key:
CT26 colon cancer cells = assay: In vitro NO treatment, cell viability by XTT assay, CT26; type: cell-based, mouse
Experimental: (§1) 10,000-20,000 cells from a cancer cell line were plated onto a 96-well plate. After an overnight incubation at 37° C. and 5% CO2, the cell culture medium was removed, and the plate was placed inside an exposure chamber made of acrylic glass, which was closed and sealed with paraffin wax tape. A gas delivery line was inserted from the top of the chamber. NO supplied from 800 ppm NO cylinders, as well as air and oxygen, were delivered to the chamber at a gas flow rate of 1 liter per minute. NO was diluted to the indicated concentration and the final oxygen concentration inside the chamber was adjusted to about 21%, to avoid cell death due to lack of oxygen. Gas exposure lasted for the indicated time period, for one to seven exposure cycles. Gas exchange during this time was permitted via an outlet hole located close to the bottom of the chamber. Cancer cells exposed to air served as a control group. Cell viability was determined using an XTT (2,3-bis-(2-methoxy-4-nitro-5-sulfophenyl)-2H-tetrazolium-5-carboxanilide) assay, whereby conversion of the XTT by viable cells to the corresponding formazan dye was quantified by spectrophotometry.
CT26 colon cancer cells (a mouse colon cancer line) were grown in 100 μl RPMI (Roswell Park Memorial Institute medium)-based tissue culture medium, supplemented with 1% streptomycin-penicillin and 10% fetal bovine serum, and plated 1 day before exposure to NO in 10 ml RPMI-based tissue culture medium; and then exposed to 400 ppm NO for 1 hour, or to 200 ppm NO for one or more cycles of 15 minutes (separated by 30 minutes of rest at 37° C.), using the procedures described hereinabove. Immediately after each exposure, 100 μl of the abovementioned supplemented RPMI-based tissue culture medium was added to each well and plated were stored at 37° C. and 5% CO2.
CT26 colon cancer cells were exposed to 1 μM of the chemotherapeutic agent 5-fluorouracil (5FU), in addition to 200 ppm NO for 30 minutes, using the procedures described hereinabove, except that after overnight incubation at 37° C. and 5% CO2, the 5FU was added to the cell culture medium, and the cells were subjected to a second overnight incubation prior to being placed within the exposure chamber, as described therein.
In another experiment, CT26 cells were exposed to 0.5-50 μM 5FU and 4 cycles of 200 ppm NO for 10 minutes (separated by 30 minutes of rest at 37° C.), using the procedures described hereinabove, except that the 5FU was added immediately after the last exposure to NO (or air), followed by incubation for about 24 hours.

LLC1 lung cancer cells = assay: In vitro NO treatment, cell viability by XTT assay, LLC1; type: cell-based; conditions: Mus musculus, read-out: LLC1 cells not viable
Experimental: as §1
Furthermore, LLC1 lung cancer cells (a mouse lung cancer line) were exposed to 200 ppm NO for 15 or 30 minutes, using the procedures described hereinabove.

S. aureus = conditions: 200 ppm gNO; cited from earlier work
[1] = test system: human fibroblast, keratinocyte, endothelial, monocyte and macrophage cells; conditions: 200 ppm gNO; cited from earlier work
healthy rats = assay: Safety study of intermittent NO inhalation in healthy rats; type: in vivo, rat; conditions: 250-400 ppm NO, 12 days
Experimental: (§2) The effect of intermittent inhalation of NO at a concentration of 250-400 ppm was tested for 30 days in healthy dogs and for 12 days in healthy rats.

healthy dogs = assay: Safety study of intermittent NO inhalation in healthy dogs; type: in vivo, dog; conditions: 250-400 ppm NO, 30 days
Experimental: as §2

O=c1[nH]cc(F)c(=O)[nH]1 [5FU, 5-fluorouracil]
effect on CT26 cells (viability) (CT26 colon cancer cells; 1 μM 5FU alone, overnight incubation (FIG. 4)): little effect

[N]=O [NO, nitric oxide]
cytotoxicity at 200 ppm (LLC1 lung cancer cells; LLC1, 0.25 h, 200 ppm NO for 15 minutes (FIG. 3)): 41% | cytotoxicity at 200 ppm (LLC1 lung cancer cells; LLC1, 0.5 h, 200 ppm NO for 30 minutes (FIG. 3)): 65% | CT26 cell viability (CT26 colon cancer cells; 400 ppm NO for 1 hour (FIG. 1)): not viable | cytotoxicity at 200 ppm (CT26 colon cancer cells; Mus musculus, CT26, 0.5 h, read-out: reduction of CT26 cell viability): 51% | viability at 200 ppm (CT26 colon cancer cells; Mus musculus, CT26, read-out: CT26 cell viability (decreased to)): ~40% | CT26 cell viability (CT26 colon cancer cells; seven cycles of 15 minutes, 200 ppm NO, compared to four cycles (FIG. 2C)): did not produce an additional reduction in viability | CT26 cell viability (CT26 colon cancer cells; single 15 minute exposure to 200 ppm NO (FIG. 2A)): little effect | S. aureus burden in rabbit wound model (S. aureus): reduced S. aureus burden | cytotoxicity to human cells in culture [1]: without being cytotoxic | macroscopic or microscopic effect of NO inhalation (healthy rats): No macroscopic or microscopic effect | macroscopic or microscopic effect of NO inhalation (healthy dogs): No macroscopic or microscopic effect
